# Experimental data taken from patent US5733913A, “6-Aryl pyrido[2,3-d] pyrimidines and naphthyridines for inhibiting protein tyrosine kinase mediated cellular proliferation” (priority 1995, dated 1998).
# Legend:
# [1] = target: T1, Human EGF receptor tyrosine kinase (Homo sapiens, UniProt P00533); assay: EGF receptor tyrosine kinase assay; format: biochemical; conditions: read-out: Inhibition of Protein Tyrosine Kinases, EGF, IC50
# T1 construct: isolated from A431 epidermoid carcinoma cells; endogenous in cells; host or cells: A431 epidermoid carcinoma cells (Triton lysate, wheat germ agglutinin eluate)
# T1 sequence (P00533 25-1210): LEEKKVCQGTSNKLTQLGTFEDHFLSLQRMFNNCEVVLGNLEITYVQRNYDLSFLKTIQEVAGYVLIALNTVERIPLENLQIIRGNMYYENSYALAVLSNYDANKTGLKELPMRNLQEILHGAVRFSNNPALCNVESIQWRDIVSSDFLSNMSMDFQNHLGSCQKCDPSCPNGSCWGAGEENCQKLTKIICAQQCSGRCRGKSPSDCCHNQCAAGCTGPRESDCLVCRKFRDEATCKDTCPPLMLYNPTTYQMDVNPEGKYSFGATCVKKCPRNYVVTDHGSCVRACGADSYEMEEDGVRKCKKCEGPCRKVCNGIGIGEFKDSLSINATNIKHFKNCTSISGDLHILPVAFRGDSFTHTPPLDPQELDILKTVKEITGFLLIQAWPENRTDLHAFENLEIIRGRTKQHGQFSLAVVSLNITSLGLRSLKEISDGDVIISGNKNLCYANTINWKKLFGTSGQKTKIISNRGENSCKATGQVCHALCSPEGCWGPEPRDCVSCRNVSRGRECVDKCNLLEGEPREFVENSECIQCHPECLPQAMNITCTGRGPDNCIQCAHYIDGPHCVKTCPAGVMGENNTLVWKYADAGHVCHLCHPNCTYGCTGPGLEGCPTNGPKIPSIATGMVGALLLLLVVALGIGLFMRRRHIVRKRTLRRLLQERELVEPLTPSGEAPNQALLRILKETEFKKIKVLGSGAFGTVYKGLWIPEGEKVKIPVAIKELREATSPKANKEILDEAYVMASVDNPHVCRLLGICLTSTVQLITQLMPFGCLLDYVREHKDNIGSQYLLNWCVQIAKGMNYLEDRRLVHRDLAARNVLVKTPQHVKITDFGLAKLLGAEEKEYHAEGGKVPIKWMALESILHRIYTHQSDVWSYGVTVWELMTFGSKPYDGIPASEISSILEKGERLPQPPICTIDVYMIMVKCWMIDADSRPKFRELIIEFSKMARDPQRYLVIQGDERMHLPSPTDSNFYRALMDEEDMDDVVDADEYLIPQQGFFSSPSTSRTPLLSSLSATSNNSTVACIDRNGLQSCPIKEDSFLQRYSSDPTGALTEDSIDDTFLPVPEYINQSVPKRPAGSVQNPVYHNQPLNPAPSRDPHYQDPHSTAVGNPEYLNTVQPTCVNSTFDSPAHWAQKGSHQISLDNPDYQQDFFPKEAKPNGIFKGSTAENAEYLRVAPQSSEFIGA
# Description: Purification of Epidermal Growth Factor Receptor Tyrosine Kinase
# Human EGF receptor tyrosine kinase was isolated from A431 epidermoid carcinoma cells by the following methods. Cells were grown in roller bottles in 50% Delbuco's Modified Eagle and 50% HAM F-12 nutrient media (Gibco) containing 10% fetal calf serum. Approximately 10^9 cells were lysed in two volumes of buffer containing 20 mM 2-(4N-[2-hydroxyethyl]piperazin-1-yl)ethanesulfonic acid, pH 7.4, 5 mM ethylene glycol bis(2-aminoethyl ether)N,N,N',N'-tetraacetic acid, 1% Triton X-100, 10% glycerol, 0.1 mM sodium orthovanadate, 5 mM sodium fluoride, 4 mM pyrophosphate, 4 mM benzamide, 1 mM dithiothreitol, 80 μg/mL aprotinin, 40 μg/mL leupeptin, and 1 mM phenylmethylsulfonyl fluoride. After centrifugation at 25,000×g for 10 minutes, the supernatant was equilibrated for 2 hours at 4° C. with 10 mL of wheat germ agglutinin sepharose that was previously equilibrated with 50 mM Hepes, 10% glycerol, 0.1% Triton X-100 and 150 mM NaCl, pH 7.5, (equilibration buffer). Contaminating proteins were washed from the resin with 1M NaCl in equilibration buffer, and the enzyme was eluted with 0.5M N-acetyl-1-D-glucosamine in equilibration buffer.
# Determination of IC50 Values
# The reaction was terminated by the addition of 2 mL of 75 mM phosphoric acid and passed through a 2.5-cm phosphocellulose filter disc to bind the peptide. The filter was washed five times with 75 mM phosphoric acid and placed in a vial along with 5 mL of scintillation fluid (Ready gel Beckman).
# C-src kinase = target: T2, C-src kinase (Homo sapiens, UniProt P12931); assay: C-src kinase assay; format: biochemical; conditions: read-out: Inhibition of Protein Tyrosine Kinases, C-src, IC50
# T2 construct: made in house; host or cells: baculovirus-infected insect cells
# T2 sequence (P12931 whole entry): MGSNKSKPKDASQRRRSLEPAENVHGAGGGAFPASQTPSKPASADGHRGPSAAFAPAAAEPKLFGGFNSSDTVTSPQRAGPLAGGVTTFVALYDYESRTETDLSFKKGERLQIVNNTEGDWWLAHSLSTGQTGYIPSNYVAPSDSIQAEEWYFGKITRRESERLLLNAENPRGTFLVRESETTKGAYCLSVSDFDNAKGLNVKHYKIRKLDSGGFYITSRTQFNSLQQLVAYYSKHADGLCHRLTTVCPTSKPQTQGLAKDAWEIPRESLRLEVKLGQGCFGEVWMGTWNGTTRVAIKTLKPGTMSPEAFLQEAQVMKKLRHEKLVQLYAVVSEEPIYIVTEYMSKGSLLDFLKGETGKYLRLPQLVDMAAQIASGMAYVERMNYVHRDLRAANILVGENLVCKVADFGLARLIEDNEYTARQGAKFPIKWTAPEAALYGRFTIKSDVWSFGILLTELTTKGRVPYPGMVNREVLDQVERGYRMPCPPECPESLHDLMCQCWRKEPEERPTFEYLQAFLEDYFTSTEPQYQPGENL
# In short: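 Baculovirus-expressed c-src immunopurified on antibody-coated latex beads, assayed in 40 mM Tris pH 7.5, 5 mM MgCl2 with poly GluTyr substrate and 5 μM ATP plus 32P-ATP. Reaction 10 min at room temperature, TCA-quenched, filtered; incorporated label counted by scintillation.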
compound,measurement,setting,value
"Cc1ccccc1-c1cc2cnc(N)nc2nc1N [Example 90, 6-o-Tolyl-pyrido[2,3-d]pyrimidine-2,7-diamine]",IC50,[1],22.8 µM
same,IC50,C-src kinase,1.63 µM
